Activity calls are given as the source filed them. The rule behind the calls is not given here.

This assay concerns the target T-cell receptor (TCR)-CD3 interaction, human (TCR alpha chain TRAV4). Briefly: IC50 for blocking TCR-CD3 binding – biochemical, fluorescence, TAMRA-labeled TCR probe, dose response (AID 686957).

For the molecule `O=C(NNC(=O)c1cc(Cl)ccc1O)c1cccc(S(=O)(=O)N2CCOCC2)c1`, the IC50 was > 94.1 µM (inactive).
The result for `O=C(NC(=S)NNC(=O)c1cccs1)c1ccccc1` reads > 94.1 µM (inactive); that for `O=C(Cc1ccccc1)N/N=C/c1cc(Br)cc(Br)c1O`, > 94.1 µM (inactive).
The result for `NNC(=O)c1nc[nH]c1C(=O)Nc1ccccn1` reads > 94.2 µM (inactive); that for `COc1ccc(CC(=O)N/N=C/c2cc([N+](=O)[O-])cc(Br)c2O)cc1`, > 94.1 µM (inactive).
The result for `C/C(=N\NC(=O)c1ccc(-c2ccccc2)cc1)C1C(=O)c2ccccc2C1=O` reads > 94.1 µM (inactive).
For the molecule `O=C(Cc1nnc(NC(=O)c2ccccc2)s1)N/N=C\c1ccc(O)c(O)c1`, the IC50 was > 94.1 µM (inactive).
The result for `O=C(NNC(=O)c1ccc2ccccc2c1O)c1cccs1` reads > 94.1 µM (inactive); that for `O=C1COc2ccc(C(=O)COC(=O)/C=C/c3ccc(Br)o3)cc2N1`, > 94.1 µM (inactive); that for `O=c1c2c(-c3ccc(Cl)cc3)csc2ncn1/N=C/c1cccc([N+](=O)[O-])c1O`, > 94.1 µM (inactive).
On to `COc1cc([N+](=O)[O-])cc(/C=N/NC(=O)c2cc(C)nc3ccccc23)c1O`, for which the IC50 is > 94.1 µM (inactive).
The result for `O=C(CCCN1C(=O)/C(=C/c2cccs2)SC1=S)NNC(=O)c1ccccc1O` reads > 94.1 µM (inactive); that for `O=C1C=C(O)c2c(O)cc(O)c(O)c2C1=O`, > 94.1 µM (inactive); that for `COC(=O)c1cc(O)c(O)c(O)c1`, > 94.3 µM (inactive).
The result for `O=C(CCN1CCN(c2ccccc2)CC1)N/N=C/c1ccc(O)c(O)c1O` reads > 94.1 µM (inactive).
The result for `O=c1cc(-c2ccc(O)cc2)oc2c(O)c(O)c(O)c(O)c12` reads > 94.2 µM (inactive); that for `CNC(=S)NNC(=O)c1cccn(Cc2cccc(Cl)c2)c1=O`, > 94.1 µM (inactive); that for `COCCNC(=O)Nc1ccc2nc(-c3ccco3)c(-c3ccco3)nc2c1`, > 94.1 µM (inactive).
For the molecule `C/C(=N\NC(=O)c1c(C)nc2ccccn12)c1ccc(O)cc1O`, the IC50 is > 94.1 µM (inactive).
The result for `COc1ccccc1C(=O)NNC(=O)c1ccc2ccccc2c1O` reads > 94.2 µM (inactive); that for `Cc1c(NC(=S)N/N=C/c2cc([N+](=O)[O-])ccc2O)c(=O)n(-c2ccccc2)n1C`, > 94.1 µM (inactive); that for `O=C(N/N=C/c1ccc(F)cc1)c1cc(-c2ccco2)nc2ccccc12`, > 94.1 µM (inactive).
As to `CN(C)S(=O)(=O)c1cccc(NC(=O)COC(=O)c2cc(-c3cccc(Br)c3)nc3ccccc23)c1`, the IC50 entry is “inactive”.
The result for `Nc1ncnc2oc(-c3ccco3)c(-c3ccco3)c12` reads “inactive”; that for `COc1ccc(/C=C2\SC(=O)N(CC(=O)NNC(=O)c3ccccc3O)C2=O)cc1OC`, > 94.1 µM (inactive); that for `O=C(NC(=S)NNC(=O)c1ccccc1O)c1cccnc1`, > 94.1 µM (inactive).
Turning to `COc1cc2ccccc2cc1C(=O)NNC(=O)c1ccccc1O`, the IC50 was > 94.2 µM (inactive).
The result for `Cc1ccc(NC(=O)NNC(=O)c2cc3ccccc3cc2O)cc1` reads > 94.1 µM (inactive); that for `CCC(=O)Nc1ccc2nc3c(=O)[nH]c(=S)[nH]c3nc2c1`, > 94.1 µM (inactive).
The result for `COc1ccc(C(=O)NNC(=S)NC(=O)c2ccc(Br)o2)cc1OC` reads > 94.1 µM (inactive); that for `O=C(CSc1nnc(-c2ccccc2O)n1Cc1ccccc1)NNC(=O)c1ccccc1O`, > 94.1 µM (inactive); that for `CCN(CC(=O)Nc1c(F)cccc1F)C(=O)/C=C/c1ccc2ccccc2n1`, > 94.1 µM (inactive).
The result for `Cc1[nH]n(-c2ccccc2)c(=O)c1N=Nc1ccccc1O` reads > 94.1 µM (inactive).
In the case of `CC(=O)NNC(=S)NC(=O)c1ccc(C)cc1`, the IC50 is > 94 µM (inactive).
The result for `O=C(O)c1c[nH]c2c([N+](=O)[O-])cccc2c1=O` reads > 31.3 µM (inactive); that for `COc1cccc(OCC(=O)NNC(=O)c2ccc3ccccc3c2O)c1`, > 94.1 µM (inactive); that for `C/C(=N/NC(=O)c1cc(O)c(O)c(O)c1)c1ccc([N+](=O)[O-])cc1`, > 94.1 µM (inactive).
As for `CC1CCCC(C)N1/N=C/c1ccc(O)c(O)c1` (centres undefined), the IC50 is > 94.1 µM (inactive).
The result for `O=C(N/N=C/c1sc(=O)[nH]c1-[n+]1ccc2ccccc2c1)c1ccccc1[O-]` reads > 94.1 µM (inactive); that for `Cc1cc([N+](=O)[O-])cc(/C=N/n2c(C)nc3ccccc3c2=O)c1O`, > 94 µM (inactive).
The result for `O=C(CCNC(=O)c1ccc(Br)cc1)NNC(=O)c1ccccc1O` reads > 94.1 µM (inactive).
The result for `COc1ccc(C(=O)Nc2nnc(CC(=O)N/N=C/c3ccc(O)cc3O)s2)cc1` reads > 94.1 µM (inactive); that for `O=Nc1[nH]c(=O)c(/C=C(\O)c2ccccc2)nc1NO`, > 94.2 µM (inactive).
Regarding `O=C(N/N=C/c1cc(Br)ccc1O)c1cccc(N2CCCC2=O)c1`, the IC50 was > 94.1 µM (inactive).
The result for `O=c1cc(-c2ccc(O)c(O)c2)oc2c1ccc1ccccc12` reads 6.25 µM; that for `O=C(N/N=C/c1c(O)n(Cc2ccco2)c(=O)[nH]c1=O)c1ccccc1O`, > 94 µM (inactive); that for `COc1ccc(/C=N/NC(=O)c2cc(O)c(O)c(O)c2)cc1Cn1cc([N+](=O)[O-])cn1`, 3.84 µM.
Take `O=C(NNC(=O)c1ccccc1F)c1cccc(-n2cccc2)c1`: the IC50 was > 94 µM (inactive).
The result for `COc1ccc(C(=O)NNC(=S)NC(=O)c2cccc([N+](=O)[O-])c2)cc1` reads > 94.1 µM (inactive); that for `Nc1ccc2nc3c(=O)[nH]c(=S)[nH]c3nc2c1`, 3.74 µM.
The result for `COc1ccc(NS(=O)(=O)c2cc(NC(=O)/C=C/c3cc(OC)c(OC)c(OC)c3)ccc2N2CCCCC2)cc1` reads > 94.1 µM (inactive); that for `Oc1ccc(/C=N/N=C/c2ccc(O)c(O)c2)cc1O`, 2.24 µM; that for `CCOC(=O)Cn1c(=NC(=O)c2cc(-c3cccs3)nc3ccccc23)sc2cc(S(N)(=O)=O)ccc21`, > 94.1 µM (inactive).
The result for `CCOC(=O)c1c(C)[nH]c(C(=O)N/N=C/c2cc([N+](=O)[O-])ccc2O)c1C` reads > 94.1 µM (inactive); that for `O=[N+]([O-])c1cc(Cl)cc(/C=N/NC(=S)Nc2ccc(S(=O)(=O)N3CCOCC3)cc2)c1O`, > 94.1 µM (inactive).
For the molecule `Cc1c(C(=O)NNC(=O)c2ccccc2O)oc2ccccc12`, the IC50 is > 94 µM (inactive).
As to `C=CCNC(=S)NNC(=O)c1cccn(Cc2cccc(Cl)c2)c1=O`, the IC50 was > 94.1 µM (inactive).
The result for `COC(=O)Cn1c(=NC(=O)c2cc(-c3cccs3)nc3ccccc23)sc2cc(S(N)(=O)=O)ccc21` reads > 10.5 µM (inactive); that for `COc1cc(Br)cc2cc(C(=O)N3CCN(C(=O)c4ccco4)CC3)c(=O)oc12`, > 94.1 µM (inactive).
The result for `Nc1ccc([N+](=O)[O-])cc1C(=O)NNC(=O)c1ccco1` reads > 94.1 µM (inactive).
The result for `Cc1ccc(OCC(=O)c2c(N)n(C)c(=O)n(C)c2=O)c([N+](=O)[O-])n1` reads “inactive”.
`O=c1cc(-c2ccc(O)c(O)c2)oc2ccc3ccccc3c12`: the IC50 is > 94.2 µM (inactive).
In the case of `O=C(NNC(=O)c1ccccc1O)c1ccc(-c2ccc([N+](=O)[O-])cc2)o1`, the IC50 was > 94.1 µM (inactive).
The result for `O=C(N/N=C/c1cc([N+](=O)[O-])cc([N+](=O)[O-])c1O)/C(=C\c1cccs1)NC(=O)c1ccccc1` reads > 94.1 µM (inactive); that for `Cc1ccccc1NC(=O)NNC(=O)c1ccc2ccccc2c1O`, > 94.2 µM (inactive).
Consider `O=C(NNC(=O)C1CCN(S(=O)(=O)c2ccccc2)CC1)c1ccccc1O`, for which the IC50 is > 94.1 µM (inactive).
The result for `Cc1cc(C)c2c(N)c(C(=O)NN)sc2n1` reads > 94.1 µM (inactive).
The result for `Cc1ccc(C(=O)NNC(=O)c2cc3ccccc3cc2O)cc1` reads > 94.1 µM (inactive).
The result for `O=C(O)CC(CCc1ccccc1)OC1OC(CO)C(O)C(O)C1O` (centres undefined) reads > 94.1 µM (inactive); that for `O=C(CSc1nc2ccccc2s1)N/N=C/c1cc([N+](=O)[O-])ccc1O`, > 94.1 µM (inactive); that for `O=C(N/N=C/c1cccnc1)c1cc(O)c(O)c(O)c1`, > 94 µM (inactive).
As to `O=C(N/N=C/c1cc(Cl)cc([N+](=O)[O-])c1O)c1cccc(S(=O)(=O)N2CCOCC2)c1`, the IC50 is > 94.1 µM (inactive).
The result for `CNC(=S)NNC(=O)c1cccn(Cc2ccc(Cl)c(Cl)c2)c1=O` reads > 94 µM (inactive); that for `O=C(NNC(=S)NC(=O)c1cccs1)c1ccc(O)cc1`, > 94 µM (inactive); that for `COc1cc(OC)cc(C(=O)N/N=C/c2ccc(OC)c(COc3ccc4ccccc4c3)c2)c1`, > 94.1 µM (inactive).
For `Cc1ccc(O)c(/C=N/NC(=O)COc2ccc3c(C)cc(=O)oc3c2)c1`, the IC50 is > 94.1 µM (inactive).
The result for `O=C(NNC(=S)NC(=O)c1cccnc1)c1ccc(F)cc1` reads > 94.1 µM (inactive).
In the case of `Cc1cccc(-n2c(O)c(/C=N/NC(=O)c3ccccc3Cl)c3ccccc3c2=O)n1`, the IC50 is > 94.1 µM (inactive).
The result for `Cc1cc(/C=N/n2c(COc3ccccc3C)nc3ccccc3c2=O)c(O)c([N+](=O)[O-])c1` reads > 94.1 µM (inactive).
The result for `Cc1noc(C)c1COc1ccc(C(=O)NNC(=O)c2ccccc2O)cc1` reads > 94.1 µM (inactive); that for `CCc1n[nH]c(=S)n1/N=C/c1cc(OC)cc([N+](=O)[O-])c1O`, “inactive”.
The result for `Cc1cc(C(=O)N/N=C/c2cc(Cl)cc([N+](=O)[O-])c2O)c2ccccc2n1` reads > 94.1 µM (inactive); that for `COc1ccc(NC(=O)CSc2sc3c(O)cc(=O)[nH]c3c2C#N)c(OC)c1`, > 94.1 µM (inactive); that for `CCc1ccccc1NC(=O)NNC(=O)c1ccc2ccccc2c1O`, > 94.1 µM (inactive).

The record behind these values is PubChem BioAssay AID686957 (The Scripps Research Institute Molecular Screening Center, 2013).
